Our source for the Activity values is ChEMBL document CHEMBL4340567, “Generation of C5-desoxy analogs of tetrahydroisoquinoline alkaloids exhibiting potent DNA alkylating ability” (Bioorg Med Chem Lett, 2019).

The source made the active and inactive calls. No cut-off for these calls is given here.

Assay [1] in a line: Induction of alkylation in fluorescein-labelled 5'-GGG-3' double stranded DNA (unknown origin) at 100 uM incubated for 30 mins by EMSA relative to control. (In general: A gel shift assay detects complexes by their altered migration in electrophoresis.)
The nature of assay [2]: Induction of alkylation in fluorescein-labelled 5'-AGC-3' double stranded DNA (unknown origin) at 100 uM incubated for 30 mins by EMSA relative to control.
The nature of assay [3]: Induction of alkylation in fluorescein-labelled 5'-GGC-3' double stranded DNA (unknown origin) at 100 uM incubated for 30 mins by EMSA relative to control.
A short description of assay [4]: Induction of alkylation in fluorescein-labelled 5'-ATA-3' double stranded DNA (unknown origin) at 100 uM incubated for 30 mins by EMSA relative to control.
Assay [5] can be described thus: Induction of alkylation in fluorescein-labelled 5'-CGG-3' double stranded DNA (unknown origin) at 100 uM incubated for 30 mins by EMSA relative to control.
The nature of assay [6]: Induction of alkylation in fluorescein-labelled 5'-AGT-3' double stranded DNA (unknown origin) at 100 uM incubated for 30 mins by EMSA relative to control.
Assay [7] can be described thus: Reversible binding affinity to fluorescein-labelled 5'-GGG-3' double stranded DNA (unknown origin) at 100 uM incubated for 30 mins in presence of KCN by EMSA.
Assay [8] can be described thus: Induction of alkylation in fluorescein-labelled 5'-GGG-3' double stranded DNA (unknown origin) at 25 uM incubated for 30 mins by EMSA relative to control.
The nature of assay [9]: Induction of alkylation in fluorescein-labelled 5'-GGG-3' double stranded DNA (unknown origin) at 50 uM incubated for 30 mins by EMSA relative to control.
A short description of assay [10]: Induction of alkylation in fluorescein-labelled 5'-GGG-3' double stranded DNA (unknown origin) at 2.5 uM incubated for 30 mins by EMSA relative to control.
Assay [11] is described as follows: Induction of alkylation in fluorescein-labelled 5'-GGG-3' double stranded DNA (unknown origin) at 10 uM incubated for 30 mins by EMSA relative to control.
The nature of assay [12]: Induction of alkylation in fluorescein-labelled 5'-GGG-3' double stranded DNA (unknown origin) at 5 uM incubated for 30 mins by EMSA relative to control.
A short description of assay [13]: Binding affinity to FAM-labelled 5'-GGG-3' double stranded DNA (unknown origin) assessed as migration of compound from 5'-AGT-3' to 5'-GGC-3' at 100 uM incubated for 30 mins by EMSA.
Assay [14] in a line: Binding affinity to fluorescein-labelled 5'-GGG-3' double stranded DNA (unknown origin) assessed as formation of compound-dsDNA oligomer complex at five equivalents incubated for 30 mins by EMSA relative to control.
The nature of assay [15]: Induction of alkylation in fluorescein-labelled 5'-GGG-3' double stranded DNA (unknown origin) incubated for 30 mins by EMSA relative to control.

As for `CCCCCCCCC/C=C/COC(=O)N[C@@H](C)C(=O)NC[C@H]1c2c(cc(C)c(OC)c2O)C[C@H]2[C@H]3c4c(cc(C)c(OC)c4O)C[C@@H]([C@H](C#N)N12)N3C`, the result in assay [1] was inactive.
Consider `COC1=C(C)C(=O)C2=C(C1=O)[C@H](CNC(=O)[C@H](C)N)N1[C@@H](C#N)[C@@H]3Cc4cc(C)c(OC)c(O)c4[C@H]([C@@H]1C2)N3C`, for which the Activity in assay [2] was found to be 17%; in [3], 53%; in assay [5] it was 33%; in assay [1], 31%. Also, the outcome in assay [4] and in assay [6] was inactive.
For the compound `COc1c(C)cc2c(c1O)[C@@H]1[C@@H]3Cc4cc(C)c(OC)c(O)c4[C@H](CNC(=O)[C@H](C)NC(=O)OCC4c5ccccc5-c5ccccc54)N3[C@@H](C#N)[C@H](C2)N1C`, the Activity in [1] was 22%.
`C=CCOC(=O)N[C@@H](C)C(=O)NC[C@H]1c2c(cc(C)c(OC)c2O)C[C@H]2[C@H]3c4c(cc(C)c(OC)c4O)C[C@@H]([C@H](C#N)N12)N3C` yielded an Activity in assay [1] of 86%.
Take `COc1c(C)cc2c(c1O)[C@@H]1[C@@H]3Cc4cc(C)c(OC)c(O)c4[C@H](CNC(=O)[C@H](C)N)N3[C@@H](C#N)[C@H](C2)N1C`: the Activity is 80% in assay [2]; > 95% in [8]; 94% in assay [3]; > 95% in assay [9]; 10% in assay [10]; 63% in assay [5]. In addition, the Activity in assay [11] was 85%; in [1] it was > 90%; in assay [12], 41%; in assay [6] it was 36%; in assay [14], > 95%; in assay [15], “Dose-dependent effect”. For the same compound, the result in assay [7] and in assay [13] was Active. Moreover, the result in assay [4] was inactive.
